Among the data in patent publication US6815556B2, “Compounds having fungicidal activity and processes to make and use same” (Dow AgroSciences LLC, priority 2000, dated 2004) are pest or weed control values, retold here.

In one assay the test system is Phytophthora infestans. Briefly: whole plant or invertebrate. The assay is classed as in vivo. To be noted: 24 h, read-out: PHYTIN percent control.
The next assay has as its system Plasmopara viticola. Briefly: whole plant or invertebrate. The format is in vivo. To be noted: 24 h, read-out: PLASVI percent control.

For the compound `CC(C)OC(=O)N[C@H](CS(=O)(=O)C(C)c1nc2ccc(Br)cc2s1)C(C)C` (stereo partly shown) [Compound 10], the pest or weed control at 100 ppm in the assay on Phytophthora infestans and with Plasmopara viticola was 90 to 100% in each case.
As to `CC(C)[C@@H](CS(=O)(=O)C(C)c1ccc(C#N)cc1)NC(=O)Oc1ccccc1Br` (stereo partly shown) [Compound 34], the pest or weed control at 100 ppm with Phytophthora infestans and in the assay on Plasmopara viticola was 90 to 100% each time.
Consider `CC(C)OC(=O)N[C@H](CS(=O)(=O)C(C)c1cccc(F)c1)C(C)C` (stereo partly shown) [Compound 3], for which the pest or weed control at 100 ppm with Phytophthora infestans is 90 to 100%; in the assay on Plasmopara viticola, 50 to 89%.
Taken in the same sequence, the figures for `CCSC(=O)N[C@H](CS(=O)(=O)C(C)c1ccc(C#N)cc1)C(C)C` (stereo partly shown) [Compound 36] were 50 to 89% and 50 to 89%.
For the compound `CC(C)OC(=O)N[C@H](CS(=O)(=O)C(C)c1cc2ccc(F)cc2o1)C(C)C` (stereo partly shown) [Compound 25], the pest or weed control at 100 ppm in the assay with Phytophthora infestans and in the assay on Plasmopara viticola was 90 to 100% each time.
Regarding `CC(C)OC(=O)N[C@H](CS(=O)(=O)C(C)c1ccc(-c2ccccc2)cc1)C(C)C` (stereo partly shown) [Compound 6], the pest or weed control at 100 ppm with Phytophthora infestans and with Plasmopara viticola was 90 to 100% throughout.
As to `COC(C)[C@@H](CS(=O)(=O)C(C)c1ccc(C#N)cc1)NC(=O)Oc1ccc(C)cc1` (stereo partly shown) [Compound 40], the pest or weed control at 100 ppm in the assay with Phytophthora infestans and in the assay on Plasmopara viticola was 90 to 100% in each case.
With `CC(C)OC(=O)N[C@H](CS(=O)(=O)C(C)c1ccc(Br)c([N+](=O)[O-])c1)C(C)C` (stereo partly shown) [Compound 24], the pest or weed control at 100 ppm in the assay on Phytophthora infestans and in the assay on Plasmopara viticola was 90 to 100% in each case.
In the case of `CC(C)[C@@H](CS(=O)(=O)C(C)c1ccc(C#N)cc1)NC(=O)Nc1ccc(C(F)(F)F)cc1` (stereo partly shown) [Compound 37], the pest or weed control at 100 ppm in the assay on Phytophthora infestans and with Plasmopara viticola was 90 to 100% in each case.
For `CC(C)OC(=O)N[C@@H](C(C)C)C(C)S(=O)(=O)C(C)c1ccc(Br)cc1` (stereo partly shown) [Compound 44], the values for the pest or weed control at 100 ppm in the assay on Phytophthora infestans and in the assay with Plasmopara viticola were 90 to 100% and 50 to 89%, respectively.
Taken in the same sequence, the figures for `Cc1ccc(OC(=O)N[C@H](CS(=O)(=O)C(C)c2ccc(C#N)cc2)C(C)C)cc1C` (stereo partly shown) [Compound 33] were 90 to 100% and 90 to 100%.
As to `C=CCC(c1ccc(C#N)cc1)S(=O)(=O)C[C@@H](NC(=O)Oc1ccc(C)cc1)C(C)C` (stereo partly shown) [Compound 26], the pest or weed control at 100 ppm in the assay with Phytophthora infestans and with Plasmopara viticola was 90 to 100% throughout.
Take `CCOc1ccc(OC(=O)N[C@H](CS(=O)(=O)C(C)c2ccc(Br)cc2)C(C)C)cn1` (stereo partly shown) [Compound 32]: the pest or weed control at 100 ppm with Phytophthora infestans and with Plasmopara viticola was 90 to 100% throughout.
For `CC(C)OC(=O)N[C@H](CS(=O)(=O)C(C)c1ccc2ccccc2c1)C(C)C` (stereo partly shown) [Compound 16], the results for the pest or weed control at 100 ppm in the assay with Phytophthora infestans and in the assay on Plasmopara viticola were 90 to 100% and 50 to 89%, respectively.
Taken in the same sequence, the figures for `C=C(C)OC(=O)N[C@H](CS(=O)(=O)C(C)c1ccc(C#N)cc1)C(C)C` (stereo partly shown) [Compound 28] were 90 to 100% and 90 to 100%.
As to `CC(C)OC(=S)N[C@H](CS(=O)(=O)C(C)c1ccc(C#N)cc1)C(C)C` (stereo partly shown) [Compound 35], the pest or weed control at 100 ppm with Phytophthora infestans and in the assay on Plasmopara viticola was 90 to 100% each time.
On to `CC(C)[C@@H](CS(=O)(=O)C(C)c1ccc(C#N)cc1)NC(=O)Oc1ccc(Br)cc1` (stereo partly shown) [Compound 30], for which the pest or weed control at 100 ppm with Phytophthora infestans and in the assay on Plasmopara viticola was 90 to 100% each time.
Turning to `CON=Cc1ccc(C(C)S(=O)(=O)C[C@@H](NC(=O)OC(C)C)C(C)C)cc1` (stereo partly shown) [Compound 12], the pest or weed control at 100 ppm with Phytophthora infestans and in the assay on Plasmopara viticola was 90 to 100% each time.
Consider `CCC(C)[C@@H](CS(=O)(=O)C(C)c1ccc(Br)cc1)NC(=O)OC(C)C` (stereo partly shown) [Compound 39], for which the pest or weed control at 100 ppm in the assay on Phytophthora infestans and in the assay with Plasmopara viticola was 90 to 100% in each case.
In the case of `CC(C)OC(=O)N[C@H](CS(=O)(=O)C(C)c1ccc(C#N)s1)C(C)C` (stereo partly shown) [Compound 9], the pest or weed control at 100 ppm in the assay with Phytophthora infestans and in the assay on Plasmopara viticola was 90 to 100% throughout.
